Here are results for 4 molecules from article doi:10.1101/362830v1 (biorxiv, 2018).

Common to all, as to type: biochemical
Assay [1] deals with T1, D14 (Oryza sativa, UniProt Q10QA5).
T1 sequence (Q10QA5 54-318): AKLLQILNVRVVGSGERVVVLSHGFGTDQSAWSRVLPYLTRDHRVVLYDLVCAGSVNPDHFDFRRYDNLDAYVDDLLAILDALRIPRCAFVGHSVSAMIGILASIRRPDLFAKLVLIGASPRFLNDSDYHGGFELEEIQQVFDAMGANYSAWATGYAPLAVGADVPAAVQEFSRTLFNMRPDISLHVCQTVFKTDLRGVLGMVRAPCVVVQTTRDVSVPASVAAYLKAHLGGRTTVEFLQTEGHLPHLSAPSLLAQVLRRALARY
Briefly: inhibition of YLG hydrolysis, fluorescence.

For a further assay, the target named is T2, ShHTL7 (Striga hermonthica, UniProt A0A0M3PNA2).
T2 sequence (A0A0M3PNA2 1-271): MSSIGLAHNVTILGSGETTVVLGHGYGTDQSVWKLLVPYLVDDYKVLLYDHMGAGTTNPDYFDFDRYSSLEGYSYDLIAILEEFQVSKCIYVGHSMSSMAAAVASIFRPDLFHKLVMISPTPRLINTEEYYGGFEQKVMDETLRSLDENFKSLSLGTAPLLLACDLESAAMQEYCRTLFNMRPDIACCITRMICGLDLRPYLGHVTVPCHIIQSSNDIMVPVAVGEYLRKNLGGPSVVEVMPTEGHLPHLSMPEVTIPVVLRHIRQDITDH
Briefly: inhibition of YLG hydrolysis, fluorescence.

The target in assay [2] is T1, D14. The experiment in a line: fluorogenic hydrolysis, ex […] nm, em […] nm. The note with it: read-out: Km^YLG; 100 mM PBS pH 7.3, 0.1% DMSO, 30 °C; no inhibitor.

Broadly, the IC50 is the concentration that gives 50% inhibition. A lower IC50 goes with inhibition by little substance. As for `CC1=C[C@@H](O/C=C2/C(=O)O[C@@H]3c4ccccc4C[C@H]23)OC1=O` [GR24], the results for the IC50 at D14 [1] and at ShHTL7 were 5.8 µM and 0.15 µM, respectively.
Usually Km stands for the substrate concentration at which the rate is half of its maximum. As to `CCOC(=O)c1ccccc1-c1c2ccc(=O)cc-2oc2cc(OC3C=C(C)C(=O)O3)ccc12` (centres unmarked) [Yoshimulactone Green], the Km on D14 [2] came to 1.84 µM.
For the molecule `O=C(N1CCc2ccccc21)n1ccnn1` [compound 26, indolin-1-yl(1H-1,2,3-triazol-1-yl)methanone], it took 1.8 µM to reach half-maximal inhibition on D14 [1] (IC50).
Turning to `O=C(N1CCc2ccccc21)n1nccn1` [compound 26, indolin-1-yl(2H-1,2,3-triazol-2-yl)methanone], half-maximal inhibition on D14 [1] (IC50) was put at 7.9 µM.
